Source: the supplement of paper PMC10307832

Tests used:
Test in all cases: relative viability (nuclei count vs DMSO), 5 days (fraction); higher = more cells survive
[1] = system: NCI-H1666
How it was run: (§1)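 The day after seeding in 1536-well plates, lung cancer cell lines were treated by pin tool with a single drug, or with a fixed anchor-drug dose together with five library-drug doses (not always all listed) in √10 steps. After 5 days, a combined fix-and-stain solution (final 0.05% Triton X-100, 1% formaldehyde, 1 ug/ml Hoechst) was added. Nuclei counted on 4× images gave relative viability as treated counts over vehicle counts, reported as the median of duplicate plates.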

[2] = system: NCI-H2347
How it was run: as §1

[3] = system: NCI-H838
How it was run: as §1

[4] = system: NCI-H1975
How it was run: as §1

[5] = system: NCI-H358
How it was run: as §1

[6] = system: HARA
How it was run: as §1

[7] = system: LU99A
How it was run: as §1

[8] = system: NCI-H1734
How it was run: as §1

[9] = system: HCC-366
How it was run: as §1

[10] = system: PC-3 [JPC-3]
How it was run: as §1

[11] = system: NCI-H3122
How it was run: as §1

[12] = system: NCI-H2405
How it was run: as §1

[13] = system: LXF-289
How it was run: as §1

[14] = system: NCI-H661
How it was run: as §1

[15] = system: NCI-H650
How it was run: as §1

[16] = system: NCI-H1792
How it was run: as §1

[17] = system: HCC-15
How it was run: as §1

[18] = system: NCI-H460
How it was run: as §1

[19] = system: NCI-H1944
How it was run: as §1

[20] = system: SW 1573
How it was run: as §1

[21] = system: NCI-H1793
How it was run: as §1

[22] = system: NCI-H2228
How it was run: as §1

Q: What does the source list for `Nc1cccc2c1CN(C1CCC(=O)NC1=O)C2=O` (stereo not drawn) [Lenalidomide] + Nc1nc2[nH]cc(CCc3ccc(C(=O)N[C@@H](CCC(=O)O)C(=O)O)cc3)c2c(=O)[nH]1 [Pemetrexed] (partner 0.2 µM)?
A: relative viability ([1]; first compound 0.253 µM): 0.801; relative viability ([1]; first compound 0.8 µM): 0.878; relative viability ([1]; first compound 2.53 µM): 0.873; relative viability ([1]; first compound 8 µM): 0.826; relative viability ([2]; first compound 0.253 µM): 0.405; relative viability ([2]; first compound 0.8 µM): 0.435; relative viability ([2]; first compound 2.53 µM): 0.415; relative viability ([2]; first compound 8 µM): 0.431; relative viability ([3]; first compound 0.253 µM): 0.247; relative viability ([3]; first compound 0.8 µM): 0.265; relative viability ([3]; first compound 2.53 µM): 0.241; relative viability ([3]; first compound 8 µM): 0.265; relative viability ([4]; first compound 0.253 µM): 0.29; relative viability ([4]; first compound 0.8 µM): 0.303; relative viability ([4]; first compound 2.53 µM): 0.322; relative viability ([4]; first compound 8 µM): 0.332; relative viability ([5]; first compound 0.8 µM): 0.197; relative viability ([5]; first compound 2.53 µM): 0.182; relative viability ([5]; first compound 8 µM): 0.179; relative viability ([6]; first compound 0.253 µM): 0.258; relative viability ([6]; first compound 2.53 µM): 0.249; relative viability ([6]; first compound 8 µM): 0.259; relative viability ([7]; first compound 0.253 µM): 0.188; relative viability ([7]; first compound 0.8 µM): 0.183; relative viability ([7]; first compound 2.53 µM): 0.169; relative viability ([7]; first compound 8 µM): 0.169; relative viability ([8]; first compound 0.253 µM): 0.465; relative viability ([8]; first compound 0.8 µM): 0.465; relative viability ([8]; first compound 2.53 µM): 0.433; relative viability ([8]; first compound 8 µM): 0.479; relative viability ([9]; first compound 0.253 µM): 0.161; relative viability ([9]; first compound 0.8 µM): 0.123; relative viability ([9]; first compound 2.53 µM): 0.206; relative viability ([9]; first compound 8 µM): 0.264; relative viability ([10]; first compound 0.253 µM): 1.2; relative viability ([10]; first compound 0.8 µM): 0.755; relative viability ([10]; first compound 2.53 µM): 1.21; relative viability ([10]; first compound 8 µM): 1.08; relative viability ([11]; first compound 0.253 µM): 0.205; relative viability ([11]; first compound 0.8 µM): 0.202; relative viability ([11]; first compound 2.53 µM): 0.193; relative viability ([11]; first compound 8 µM): 0.23; relative viability ([12]; first compound 0.253 µM): 0.999; relative viability ([12]; first compound 0.8 µM): 0.988; relative viability ([12]; first compound 2.53 µM): 1.08; relative viability ([12]; first compound 8 µM): 0.94; relative viability ([13]; first compound 0.253 µM): 0.904; relative viability ([13]; first compound 0.8 µM): 1.13; relative viability ([13]; first compound 2.53 µM): 0.939; relative viability ([13]; first compound 8 µM): 1.06; relative viability ([14]; first compound 0.253 µM): 0.908; relative viability ([14]; first compound 0.8 µM): 0.935; relative viability ([14]; first compound 2.53 µM): 0.926; relative viability ([14]; first compound 8 µM): 0.932; relative viability ([15]; first compound 0.253 µM): 0.902; relative viability ([15]; first compound 0.8 µM): 0.914; relative viability ([15]; first compound 2.53 µM): 1.07; relative viability ([15]; first compound 8 µM): 0.841; relative viability ([16]; first compound 0.253 µM): 1.12; relative viability ([16]; first compound 0.8 µM): 0.629; relative viability ([16]; first compound 2.53 µM): 1.08; relative viability ([16]; first compound 8 µM): 0.336; relative viability ([17]; first compound 0.253 µM): 0.219; relative viability ([17]; first compound 2.53 µM): 0.231; relative viability ([17]; first compound 8 µM): 0.228; relative viability ([18]; first compound 0.253 µM): 0.0811; relative viability ([18]; first compound 0.8 µM): 0.068; relative viability ([18]; first compound 2.53 µM): 0.0659; relative viability ([18]; first compound 8 µM): 0.0603; relative viability ([19]; first compound 0.253 µM): 0.642; relative viability ([19]; first compound 2.53 µM): 0.691; relative viability ([19]; first compound 8 µM): 0.553; relative viability ([20]; first compound 0.253 µM): 0.751; relative viability ([20]; first compound 0.8 µM): 0.856; relative viability ([20]; first compound 2.53 µM): 0.98; relative viability ([20]; first compound 8 µM): 0.812; relative viability ([21]; first compound 0.253 µM): 0.921; relative viability ([21]; first compound 2.53 µM): 1.15; relative viability ([21]; first compound 8 µM): 0.411; relative viability ([22]; first compound 0.253 µM): 0.345; relative viability ([22]; first compound 0.8 µM): 0.345; relative viability ([22]; first compound 2.53 µM): 0.358; relative viability ([22]; first compound 8 µM): 0.358
